From PubChem BioAssay AID1963832 (Molecular Pharmacology Branch, DTP, NCI, 2024)

Tested on: 885724-159-R-J1-PDC complex spheroid viability
Test: Anticancer human tumor 885724-159-R-J1-PDC patient-derived pancreatic adenocarcinoma cell line growth inhibition [POLQ]
Details: for IC50: curve of first compound; for viability, T/C: stronger effect = lower value
Summary of the method: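 Complex spheroid viability model combining PDC tumour cells with endothelial (HUVEC) and MSC stromal cells. Novobiocin, ART-558 or RP6685 were tested singly and in combination with standard and investigational anticancer drugs. Each was titrated in half-log steps from near clinical Cmax, or from 10 microM where Cmax was unknown.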

[1] = second compound 0.0316 µM, first compound 0.0316 µM
[2] = second compound 0.0316 µM, first compound 0.1 µM
[3] = second compound 0.0316 µM, first compound 0.316 µM
[4] = second compound 0.0316 µM, first compound 1 µM
[5] = second compound 0.1 µM, first compound 0.0316 µM
[6] = second compound 0.1 µM, first compound 0.1 µM
[7] = second compound 0.1 µM, first compound 0.316 µM
[8] = second compound 0.1 µM, first compound 1 µM
[9] = second compound 0.316 µM, first compound 0.0316 µM
[10] = second compound 0.316 µM, first compound 0.1 µM
[11] = second compound 0.316 µM, first compound 0.316 µM
[12] = second compound 0.316 µM, first compound 1 µM
[13] = second compound 1 µM, first compound 0.0316 µM
[14] = second compound 1 µM, first compound 0.1 µM
[15] = second compound 1 µM, first compound 0.316 µM
[16] = second compound 1 µM, first compound 1 µM
[17] = second compound 3.16 µM, first compound 0.0316 µM
[18] = second compound 3.16 µM, first compound 0.1 µM
[19] = second compound 3.16 µM, first compound 0.316 µM
[20] = second compound 3.16 µM, first compound 1 µM
[21] = second compound 10 µM, first compound 0.0316 µM
[22] = second compound 10 µM, first compound 0.1 µM
[23] = second compound 10 µM, first compound 0.316 µM
[24] = second compound 10 µM, first compound 1 µM
[25] = second compound 0.0316 µM, first compound 3.16 µM
[26] = second compound 0.0316 µM, first compound 10 µM
[27] = second compound 0.1 µM, first compound 3.16 µM
[28] = second compound 0.1 µM, first compound 10 µM
[29] = second compound 0.316 µM, first compound 3.16 µM
[30] = second compound 0.316 µM, first compound 10 µM
[31] = second compound 1 µM, first compound 3.16 µM
[32] = second compound 1 µM, first compound 10 µM
[33] = second compound 3.16 µM, first compound 3.16 µM
[34] = second compound 3.16 µM, first compound 10 µM
[35] = second compound 10 µM, first compound 3.16 µM
[36] = second compound 10 µM, first compound 10 µM
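Also: spheroids exposed to compounds for 7 days.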

Structure (SMILES): CCc1c2c(nc3ccc(O)cc13)-c1cc3c(c(=O)n1C2)COC(=O)[C@]3(O)CC + Nc1ccc(C#CCN(C(=O)Cc2ncc(C(F)(F)F)cc2C(F)(F)F)c2ccc(F)cc2)nn1
- IC50 (second compound 0.0316 µM): 0.0919 µM
- IC50 (second compound 0.1 µM): 0.0559 µM
- IC50 (second compound 0.316 µM): 0.0458 µM
- IC50 (second compound 1 µM): 0.0818 µM
- IC50 (second compound 3.16 µM): 0.059 µM
- IC50 (second compound 10 µM): 0.12 µM
- viability, T/C (second compound 0.0316 µM, first compound 0.00316 µM): 73.5%
- viability, T/C (second compound 0.0316 µM, first compound 0.01 µM): 60.1%
- viability, T/C [1]: 58%
- viability, T/C [2]: 51.4%
- viability, T/C [3]: 33.5%
- viability, T/C [4]: 5.95%
- viability, T/C (second compound 0.1 µM, first compound 0.00316 µM): 82.2%
- viability, T/C (second compound 0.1 µM, first compound 0.01 µM): 63.5%
- viability, T/C [5]: 52.3%
- viability, T/C [6]: 48.1%
- viability, T/C [7]: 33.2%
- viability, T/C [8]: 6.65%
- viability, T/C (second compound 0.316 µM, first compound 0.00316 µM): 83.1%
- viability, T/C (second compound 0.316 µM, first compound 0.01 µM): 63.6%
- viability, T/C [9]: 48.1%
- viability, T/C [10]: 46.1%
- viability, T/C [11]: 32.7%
- viability, T/C [12]: 6.56%
- viability, T/C (second compound 1 µM, first compound 0.00316 µM): 76.3%
- viability, T/C (second compound 1 µM, first compound 0.01 µM): 63%
- viability, T/C [13]: 49%
- viability, T/C [14]: 51.4%
- viability, T/C [15]: 37.7%
- viability, T/C [16]: 5.34%
- viability, T/C (second compound 3.16 µM, first compound 0.00316 µM): 78.8%
- viability, T/C (second compound 3.16 µM, first compound 0.01 µM): 65.1%
- viability, T/C [17]: 51.4%
- viability, T/C [18]: 47.2%
- viability, T/C [19]: 34.6%
- viability, T/C [20]: 5.06%
- viability, T/C (second compound 10 µM, first compound 0.00316 µM): 72.8%
- viability, T/C (second compound 10 µM, first compound 0.01 µM): 58.6%
- viability, T/C [21]: 53.6%
- viability, T/C [22]: 55.1%
- viability, T/C [23]: 39.3%
- viability, T/C [24]: 5.13%

Structure (SMILES): COc1cc(C2c3cc4c(cc3C(OC3OC5COC(C)OC5C(O)C3O)C3COC(=O)C23)OCO4)cc(OC)c1O (stereo unspecified) + Nc1ccc(C#CCN(C(=O)Cc2ncc(C(F)(F)F)cc2C(F)(F)F)c2ccc(F)cc2)nn1
- IC50 (second compound 0.0316 µM): > 10 µM
- IC50 (second compound 0.1 µM): > 10 µM
- IC50 (second compound 0.316 µM): > 10 µM
- IC50 (second compound 1 µM): > 10 µM
- IC50 (second compound 3.16 µM): > 10 µM
- IC50 (second compound 10 µM): > 10 µM
- viability, T/C [1]: 107%
- viability, T/C [2]: 86.6%
- viability, T/C [3]: 87.4%
- viability, T/C [4]: 71%
- viability, T/C [25]: 57.8%
- viability, T/C [26]: 55%
- viability, T/C [5]: 104%
- viability, T/C [6]: 89.4%
- viability, T/C [7]: 82.2%
- viability, T/C [8]: 69.4%
- viability, T/C [27]: 61.1%
- viability, T/C [28]: 53.2%
- viability, T/C [9]: 103%
- viability, T/C [10]: 87.2%
- viability, T/C [11]: 76.1%
- viability, T/C [12]: 66.3%
- viability, T/C [29]: 58.2%
- viability, T/C [30]: 50.6%
- viability, T/C [13]: 89.7%
- viability, T/C [14]: 85.7%
- viability, T/C [15]: 76.9%
- viability, T/C [16]: 69.6%
- viability, T/C [31]: 53.9%
- viability, T/C [32]: 53.5%
- viability, T/C [17]: 87.8%
- viability, T/C [18]: 87.9%
- viability, T/C [19]: 82.6%
- viability, T/C [20]: 81%
- viability, T/C [33]: 56.1%
- viability, T/C [34]: 50.9%
- viability, T/C [21]: 95.1%
- viability, T/C [22]: 94.3%
- viability, T/C [23]: 82.4%
- viability, T/C [24]: 74.1%
- viability, T/C [35]: 62.8%
- viability, T/C [36]: 52.4%

Structure (SMILES): O=C(c1cc(Cc2n[nH]c(=O)c3ccccc23)ccc1F)N1CCN(C(=O)C2CC2)CC1 + Nc1ccc(C#CCN(C(=O)Cc2ncc(C(F)(F)F)cc2C(F)(F)F)c2ccc(F)cc2)nn1
- IC50 (second compound 0.0316 µM): > 10 µM
- IC50 (second compound 0.1 µM): > 10 µM
- IC50 (second compound 0.316 µM): > 10 µM
- IC50 (second compound 1 µM): > 10 µM
- IC50 (second compound 3.16 µM): > 10 µM
- IC50 (second compound 10 µM): > 10 µM
- viability, T/C [1]: 90.7%
- viability, T/C [2]: 97.2%
- viability, T/C [3]: 95.1%
- viability, T/C [4]: 88.2%
- viability, T/C [25]: 89.4%
- viability, T/C [26]: 80.4%
- viability, T/C [5]: 95%
- viability, T/C [6]: 94.5%
- viability, T/C [7]: 85.7%
- viability, T/C [8]: 96.7%
- viability, T/C [27]: 84.1%
- viability, T/C [28]: 77.6%
- viability, T/C [9]: 85.4%
- viability, T/C [10]: 94.5%
- viability, T/C [11]: 100%
- viability, T/C [12]: 87.8%
- viability, T/C [29]: 86.2%
- viability, T/C [30]: 75.8%
- viability, T/C [13]: 101%
- viability, T/C [14]: 90.6%
- viability, T/C [15]: 84.6%
- viability, T/C [16]: 99%
- viability, T/C [31]: 88.7%
- viability, T/C [32]: 84%
- viability, T/C [17]: 98%
- viability, T/C [18]: 92%
- viability, T/C [19]: 84.7%
- viability, T/C [20]: 82%
- viability, T/C [33]: 88.1%
- viability, T/C [34]: 80.8%
- viability, T/C [21]: 102%
- viability, T/C [22]: 94.3%
- viability, T/C [23]: 87.4%
- viability, T/C [24]: 94.1%
- viability, T/C [35]: 95.6%
- viability, T/C [36]: 75.6%
